Laboratory results reported in patent publication US12077503B2, “Substituted cyclic amides and their use as herbicides” (FMC CORPORATION, priority 2015, dated 2024).
Where two headings read alike, the source gives them in different places.

Experiments:
[1] = test system: giant foxtail (Setaria faberii); experiment: Test A postemergence; type: in vivo; details: Setaria faberi, post-emergence, 240 h; for pest or weed control at 125 g/ha: 125 g ai/ha; for pest or weed control at 500 g/ha: 500 g ai/ha
Outline: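 Greenhouse, ~10 d after spray; visual injury vs untreated controls, 0 = no effect, 100 = complete control. Preemergence: directed soil spray over planted seeds. Postemergence: plants 2–10 cm, 1–2 leaf stage. Loam/sand blend. Compound in non-phytotoxic solvent with surfactant.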

[2] = test system: ducksalad (Heteranthera limosa); experiment: Test B flooded paddy test; type: in vivo; details: Heteranthera limosa, Flood, 250 g ai/ha, read-out: Ducksalad plant response rating
Outline: (§1)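 2-leaf plants; pots flooded 3 cm over soil; cpd added to paddy water; depth held; greenhouse 13–15 d; visual rating vs controls, 0 = no effect, 100 = complete control.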

rice (Oryra sativa) = experiment: Test B flooded paddy test; type: in vivo; details: Oryza sativa, Flood, 250 g ai/ha, read-out: Rice plant response rating
Outline: as §1

[3] = test system: barnyardgrass (Echinochloa crus-galli); experiment: Test B flooded paddy test; type: in vivo; details: Echinochloa crus-galli, Flood, 250 g ai/ha, read-out: Barnyardgrass plant response rating
Outline: as §1

[4] = test system: sedge, umbrella (small-flower umbrella sedge, Cyperus difformis); experiment: Test B flooded paddy test; type: in vivo; details: Cyperus difformis, Flood, 250 g ai/ha, read-out: Sedge, Umbrella plant response rating
Outline: as §1

[5] = scale of 0 to 100 where 0 is no effect and 100 is complete control
[6] = Postemergence, visual injury after approximately 10 d, 0 to 100 scale where 0 is no effect and 100 is complete control, read-out: Plant response rating, Foxtail, Giant
[7] = postemergence, visual injury, 0 to 100 scale (0 no effect, 100 complete control), approx. 10 d, read-out: Plant response rating, Foxtail, Giant
[8] = 0 to 100 scale where 0 is no effect and 100 is complete control
[9] = postemergence, visual injury on 0 to 100 scale (0 no effect, 100 complete control), approx. 10 d, read-out: Foxtail, Giant plant response rating
[10] = postemergence, 0 to 100 scale, 0 is no effect, 100 is complete control, read-out: Foxtail, Giant plant response rating

SMILES | melting point [°C] | pest or weed control at 125 g/ha ([1]; postemergence, visual injury rating after approximately 10 d, read-out: Foxtail, Giant plant response rating (0 to 100 scale, 0 no effect, 100 complete control)) [%] | pest or weed control at 250 g/ha [2, 5] [%] | pest or weed control at 250 g/ha (rice (Oryra sativa); [5]) [%] | pest or weed control at 250 g/ha [3, 5] [%] | pest or weed control at 250 g/ha [4, 5] [%] | pest or weed control at 125 g/ha [1, 6] [%] | pest or weed control at 500 g/ha [1, 7] [%] | pest or weed control at 250 g/ha [2, 8] [%] | pest or weed control at 250 g/ha (rice (Oryra sativa); [8]) [%] | pest or weed control at 250 g/ha [3, 8] [%] | pest or weed control at 250 g/ha [4, 8] [%] | pest or weed control at 125 g/ha [1, 9] [%] | pest or weed control at 500 g/ha [1, 10] [%] | pest or weed control at 125 g/ha ([1]; postemergence, visual injury vs untreated controls after approx. 10 d, 0 = no effect, 100 = complete control, read-out: Foxtail, Giant plant response rating (0 to 100 scale)) [%]
COc1cccc(C2CN(C)C(=O)C2C(=O)Nc2cccc(F)c2F)c1 (stereo not drawn) [Compound 886] | 137 to 140 | 90 | 50 | 0 | 75 | 0 | – | – | – | – | – | – | – | – | –
COc1ccc([C@H]2CN(C)C(=O)[C@@H]2C(=O)Nc2cccc(F)c2F)cc1F [Compound 1021] | – | – | – | – | – | – | 90 | 90 | 98 | 15 | 80 | 0 | – | – | –
Cc1cc([C@H]2CN(C)C(=O)[C@@H]2C(=O)Nc2cccc(F)c2F)cc(C)c1Br [Compound 1024] | – | – | – | – | – | – | 70 | 90 | 70 | 0 | 40 | 0 | – | – | –
O=C1NC[C@H](c2ccc3c(c2)OCO3)[C@H]1C(=O)Nc1ccc(F)c(F)c1F [Compound 1027] | – | – | – | – | – | – | – | 60 | 100 | 30 | 40 | 0 | 20 | – | –
CN1CC[C@H](c2ccccc2)[C@@H](C(=O)Nc2ccccc2F)C1=O [Compound 1032] | – | – | – | – | – | – | – | 0 | 20 | 0 | 0 | 0 | 0 | – | –
Cc1ccc([C@H]2CNC(=O)[C@@H]2C(=O)Nc2cccc(F)c2F)cc1C [Compound 1034] | – | – | – | – | – | – | – | 80 | 100 | 0 | 60 | 0 | 20 | – | –
Cc1ccc([C@H]2CN(C)C(=O)[C@@H]2C(=O)Nc2ccccc2F)cc1C [Compound 1038] | – | – | – | – | – | – | – | 90 | 100 | 0 | 65 | 0 | 90 | – | –
Cc1cc([C@H]2CNC(=O)[C@@H]2C(=O)Nc2ccccc2F)ccc1C(F)(F)F [Compound 1042] | – | – | – | – | – | – | – | 90 | 75 | 0 | 30 | 0 | 80 | – | –
Cc1cc([C@H]2CNC(=O)[C@@H]2C(=O)Nc2ccccc2Cl)ccc1C(F)(F)F [Compound 1044] | – | – | – | – | – | – | – | 90 | 0 | 0 | 0 | 0 | 60 | – | –
O=C1NC[C@H](c2ccc3c(c2)CCC3)[C@H]1C(=O)Nc1ccccc1F [Compound 1045] | – | – | – | – | – | – | – | 90 | 100 | 0 | 75 | 0 | 60 | – | –
O=C1NC[C@H](c2ccc3c(c2)CCC3)[C@H]1C(=O)Nc1cccc(F)c1F [Compound 1046] | – | – | – | – | – | – | – | 90 | 100 | 0 | 60 | 0 | 60 | – | –
CN1C[C@H](c2cc(F)cc(F)c2)[C@@H](C(=O)Nc2ccncc2F)C1=O [Compound 1095] | – | – | – | – | – | – | – | – | 50 | 0 | 0 | 0 | 0 | 0 | –
CN1C[C@H](c2cc(F)cc(F)c2)[C@@H](C(=O)Nc2cnccc2Cl)C1=O [Compound 1096] | – | – | – | – | – | – | – | – | 65 | 0 | 0 | 0 | 0 | 0 | –
Cc1cc([C@H]2CN(C)C(=O)[C@@H]2C(=O)Nc2ccc(F)cc2F)ccc1Br [Compound 1100] | – | – | – | – | – | – | – | – | 75 | 0 | 0 | 0 | 70 | 70 | –
Cc1cc([C@H]2CN(C)C(=O)[C@@H]2C(=O)Nc2ccc(F)c(F)c2F)ccc1Br [Compound 1101] | – | – | – | – | – | – | – | – | 60 | 0 | 30 | 0 | 70 | 80 | –
Cc1cc([C@H]2CN(C)C(=O)[C@@H]2C(=O)Nc2ccccc2S(C)(=O)=O)ccc1Br [Compound 1102] | – | – | – | – | – | – | – | – | 85 | 0 | 60 | 0 | 80 | 90 | –
CN1C[C@H](c2cscn2)[C@@H](C(=O)Nc2ccccc2F)C1=O [Compound 1112] | – | – | – | – | – | – | – | – | 0 | 15 | 0 | 40 | 0 | 0 | –
CN1C[C@H](c2cc(C(F)F)cs2)[C@@H](C(=O)Nc2ccccc2F)C1=O [Compound 1120] | – | – | – | – | – | – | – | – | 100 | 20 | 65 | 0 | 90 | 90 | –
CSc1ccccc1NC(=O)[C@H]1C(=O)NC[C@@H]1c1cc(F)c(F)c(F)c1 [Compound 1124] | – | – | – | – | – | – | – | – | 95 | 0 | 0 | 0 | 60 | 90 | –
Cc1c(F)cccc1NC(=O)[C@H]1C(=O)NC[C@@H]1c1cc(F)c(F)c(F)c1 [Compound 1125] | – | – | – | – | – | – | – | – | 100 | 0 | 70 | 0 | 90 | 90 | –
CN1C[C@H](c2ccc3c(c2)OCO3)[C@@H](C(=O)Nc2cccc(F)c2F)C1=O [Compound 1126] | – | – | – | – | – | – | – | – | 100 | 0 | 75 | 0 | 80 | 90 | –
O=C1NC[C@H](c2ccc3c(c2)OCO3)[C@H]1C(=O)Nc1cccc(F)c1C(F)(F)F [Compound 1127] | – | – | – | – | – | – | – | – | 100 | 0 | 0 | 0 | 0 | 50 | –
O=C1NC[C@H](c2ccc(F)c(OC(F)(F)C(F)F)c2)[C@H]1C(=O)Nc1cccc(F)c1F [Compound 1131] | – | – | – | – | – | – | – | – | 70 | 30 | 60 | 0 | 80 | 90 | –
Cc1nc([C@H]2CNC(=O)[C@@H]2C(=O)Nc2cccc(F)c2F)cs1 [Compound 1180] | – | – | – | – | – | – | – | – | 85 | 0 | 0 | 0 | – | 0 | 0
